Earlier results in patent publication US20260183243A1, “PHARMACEUTICAL COMPOSITIONS OF NOR-UDCA” (SHILPA MEDICARE LIMITED, priority 2022, published 2026).

Conditions: background statement, no test described

C[C@H](CC(=O)O)[C@H]1CC[C@H]2[C@@H]3[C@@H](O)C[C@@H]4C[C@H](O)CC[C@]4(C)[C@H]3CC[C@]12C [Nor-UDCA, 24-nor-ursodeoxycholic acid]
solubility in an aqueous medium: poorly soluble
